Data as given in PubChem BioAssay AID1963983 (Molecular Pharmacology Branch, DTP, NCI, 2024).
Blank lines part the entries; values can stand above or below the compound they belong to.

System: 186277-243-T-J2-PDC multi-cell spheroid viability
Test: Anticancer human tumor 186277-243-T-J2-PDC patient-derived colon adenocarcinoma cell line growth inhibition [PI3K]
Details: for IC50: curve of first compound; for viability, T/C: stronger effect = lower value
Description: Combinatorial screen of targeted agents with the PI3K inhibitors inavolisib, alpelisib, duvelisib, and copanlisib in multi-cell type tumor spheroids
A high-throughput screen of multi-cell type tumor spheroids was designed to identify active combinations of targeted small molecules and PI3K pathway inhibitors. Complex spheroids include a stromal component modeled by human endothelial cells (HUVEC) and fibroblasts modeled by human mesenchymal stem cells (MSCs). The concentration ranges selected for each drug and investigational agent were based upon clinically achievable concentrations if the clinical Cmax of the agent was known.
Compounds. The drugs and investigational agents: inavolisib (NSC800729), alpelisib (NSC765974), duvelisib (NSC772469), copanlisib (NSC816437), ipatasertib (NSC767898), afuresertib (NSC778305), talazoparib (NSC767125), sapanisertib (NSC764658), selumetinib (NSC741078), tovorafenib (DAY101, NSC766906), vemurafenib (NSC761431), ravoxertinib (NSC781343), sotorasib (NSC818433), MRTX1133 (NSC 836407), abemaciclib (NSC 768073), palbociclib (NSC758247), venetoclax (NSC 766270), SY5609 (NSC837396), enzalutamide (NSC755605), and darolutamide (NSC825331), were obtained from the National Cancer Institute (NCI) Developmental Therapeutics Program Chemical Repository. The FDA-approved anticancer drug set is available from the NCI Developmental Therapeutics Program. […] The stock solutions were prepared in dimethyl sulfoxide (DMSO, Sigma-Aldrich, St. Louis, MO, cat. D2650) at 800-fold the tested concentration and stored at -70 degrees C prior to their use. All drugs and investigational agents were tested over a range starting from a high concentration at or near the clinical Cmax and decreasing in half-log increments. If the clinical Cmax for an agent had not been determined, the highest concentration tested was 10 microM.
Cell Culture. All cells were maintained in an incubator at 37 degrees C and 5% CO2 with 95% humidity. The PDC lines were cultured according to standard operating procedures established by the NCI PDMR (https://pdmr.cancer.gov/sops/default.htm). All PDCs were thawed and cultured in Matrigel-coated flasks prepared with a working solution of 1X Ham's F-12 nutrient mix, without supplementation (Invitrogen, Waltham, MA, cat. 11765054), 100 U/mL penicillin-streptomycin (Invitrogen, cat. 15140122), and 2.5% Matrigel (Corning Inc., Corning, NY, cat. 354248) for the first three passages. The 354836-022-R-J1-PDC, 475296-252-R-J1-PDC, and 997726-040-R-J2-PDC lines were cultured in 6A media, which includes advanced DMEM/F-12 (Thermo Fisher Scientific, cat. 12634028), 10 mM HEPES (Thermo Fisher Scientific, cat. 15630080), 1X GlutaMAX supplement (Thermo Fisher Scientific, cat. 35050061), 0.1 mg/mL primocin (InvivoGen, San Diego, CA, cat. ant-pm-2), 10% defined fetal bovine serum, heat inactivated (HyClone Laboratories Inc., Logan, UT, cat. SH30070.03HI), 50% L-WRN conditioned media (ATCC, cat. CRL-3276), 1.25 mM N-Acetyl-L-cysteine (Sigma-Aldrich, cat. A9165), 10 mM nicotinamide (Sigma-Aldrich, cat. N0636), 1X B-27 supplement (Thermo Fisher Scientific, cat. 17504044), 1X N-2 supplement (Thermo Fisher Scientific, cat. 17502048), and 10 microM Y-27632 dihydrochloride (Tocris Bioscience, Bristol, United Kingdom, cat. 1254). The 624824-186-R-J2-PDC line was cultured in 6C/Colon 1B media, which includes all 6A media components plus 50 ng/mL human EGF recombinant protein (Thermo Fisher Scientific, cat. PHG0311). […]

[1] = second compound 0.00316 µM, first compound 0.000316 µM
[2] = second compound 0.00316 µM, first compound 0.001 µM
[3] = second compound 0.00316 µM, first compound 0.00316 µM
[4] = second compound 0.00316 µM, first compound 0.01 µM
[5] = second compound 0.00316 µM, first compound 0.0316 µM
[6] = second compound 0.00316 µM, first compound 0.1 µM
[7] = second compound 0.01 µM, first compound 0.000316 µM
[8] = second compound 0.01 µM, first compound 0.001 µM
[9] = second compound 0.01 µM, first compound 0.00316 µM
[10] = second compound 0.01 µM, first compound 0.01 µM
[11] = second compound 0.01 µM, first compound 0.0316 µM
[12] = second compound 0.01 µM, first compound 0.1 µM
[13] = second compound 0.0316 µM, first compound 0.000316 µM
[14] = second compound 0.0316 µM, first compound 0.001 µM
[15] = second compound 0.0316 µM, first compound 0.00316 µM
[16] = second compound 0.0316 µM, first compound 0.01 µM
[17] = second compound 0.0316 µM, first compound 0.0316 µM
[18] = second compound 0.0316 µM, first compound 0.1 µM
[19] = second compound 0.1 µM, first compound 0.000316 µM
[20] = second compound 0.1 µM, first compound 0.001 µM
[21] = second compound 0.1 µM, first compound 0.00316 µM
[22] = second compound 0.1 µM, first compound 0.01 µM
[23] = second compound 0.1 µM, first compound 0.0316 µM
[24] = second compound 0.1 µM, first compound 0.1 µM
[25] = second compound 0.316 µM, first compound 0.000316 µM
[26] = second compound 0.316 µM, first compound 0.001 µM
[27] = second compound 0.316 µM, first compound 0.00316 µM
[28] = second compound 0.316 µM, first compound 0.01 µM
[29] = second compound 0.316 µM, first compound 0.0316 µM
[30] = second compound 0.316 µM, first compound 0.1 µM
[31] = second compound 1 µM, first compound 0.000316 µM
[32] = second compound 1 µM, first compound 0.001 µM
[33] = second compound 1 µM, first compound 0.00316 µM
[34] = second compound 1 µM, first compound 0.01 µM
[35] = second compound 1 µM, first compound 0.0316 µM
[36] = second compound 1 µM, first compound 0.1 µM
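Also: spheroids exposed to compounds for seven days before viability reading.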
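For viability, T/C in this document: 100% = DMSO vehicle control viability.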

IC50 (second compound 0.00316 µM): > 100 nM
IC50 (second compound 0.01 µM): > 100 nM
IC50 (second compound 0.0316 µM): > 100 nM
IC50 (second compound 0.1 µM): > 100 nM
IC50 (second compound 0.316 µM): 96.4 nM
IC50 (second compound 1 µM): < 0.316 nM
Compound: CC(=O)c1c(C)c2cnc(Nc3ccc(N4CCNCC4)cn3)nc2n(C2CCCC2)c1=O + CC(Nc1ccc2c(c1)OCCn1cc(N3C(=O)OCC3C(F)F)nc1-2)C(N)=O
viability, T/C [1]: 114%
viability, T/C [2]: 89.2%
viability, T/C [3]: 82.3%
viability, T/C [4]: 98.5%
viability, T/C [5]: 118%
viability, T/C [6]: 137%
viability, T/C [7]: 94%
viability, T/C [8]: 94.8%
viability, T/C [9]: 89.8%
viability, T/C [10]: 101%
viability, T/C [11]: 119%
viability, T/C [12]: 132%
viability, T/C [13]: 119%
viability, T/C [14]: 116%
viability, T/C [15]: 91.7%
viability, T/C [16]: 96.3%
viability, T/C [17]: 134%
viability, T/C [18]: 122%
viability, T/C [19]: 104%
viability, T/C [20]: 89.3%
viability, T/C [21]: 102%
viability, T/C [22]: 98.6%
viability, T/C [23]: 101%
viability, T/C [24]: 89.4%
viability, T/C [25]: 85.3%
viability, T/C [26]: 73.6%
viability, T/C [27]: 73.2%
viability, T/C [28]: 76.1%
viability, T/C [29]: 63.5%
viability, T/C [30]: 49.3%
viability, T/C [31]: 49.7%
viability, T/C [32]: 43.5%
viability, T/C [33]: 47.5%
viability, T/C [34]: 41.2%
viability, T/C [35]: 35.7%
viability, T/C [36]: 29.6%

IC50 (second compound 0.00316 µM): 52.9 nM
IC50 (second compound 0.01 µM): 55.2 nM
IC50 (second compound 0.0316 µM): 47.5 nM
IC50 (second compound 0.1 µM): 30.4 nM
IC50 (second compound 0.316 µM): 8.51 nM
IC50 (second compound 1 µM): < 0.316 nM
Compound: CC(C)n1nc(-c2ccc3oc(N)nc3c2)c2c(N)ncnc21 + CC(Nc1ccc2c(c1)OCCn1cc(N3C(=O)OCC3C(F)F)nc1-2)C(N)=O
viability, T/C [1]: 90%
viability, T/C [2]: 101%
viability, T/C [3]: 104%
viability, T/C [4]: 93.7%
viability, T/C [5]: 75.1%
viability, T/C [6]: 19.1%
viability, T/C [7]: 116%
viability, T/C [8]: 87.5%
viability, T/C [9]: 113%
viability, T/C [10]: 93.1%
viability, T/C [11]: 73.5%
viability, T/C [12]: 25.3%
viability, T/C [13]: 107%
viability, T/C [14]: 116%
viability, T/C [15]: 97.9%
viability, T/C [16]: 89.9%
viability, T/C [17]: 69.7%
viability, T/C [18]: 17.5%
viability, T/C [19]: 95.8%
viability, T/C [20]: 94.2%
viability, T/C [21]: 92.5%
viability, T/C [22]: 82.4%
viability, T/C [23]: 48.8%
viability, T/C [24]: 8.12%
viability, T/C [25]: 81.7%
viability, T/C [26]: 80.3%
viability, T/C [27]: 63.5%
viability, T/C [28]: 49.7%
viability, T/C [29]: 22.6%
viability, T/C [30]: 6.29%
viability, T/C [31]: 46.9%
viability, T/C [32]: 39.3%
viability, T/C [33]: 37.6%
viability, T/C [34]: 24.3%
viability, T/C [35]: 8.53%
viability, T/C [36]: 3.88%

IC50 (second compound 0.00316 µM): 4740 nM
IC50 (second compound 0.01 µM): 5430 nM
IC50 (second compound 0.0316 µM): 5340 nM
IC50 (second compound 0.1 µM): 5030 nM
IC50 (second compound 0.316 µM): 4570 nM
IC50 (second compound 1 µM): 4110 nM
Compound: CCCS(=O)(=O)Nc1ccc(F)c(C(=O)c2c[nH]c3ncc(-c4ccc(Cl)cc4)cc23)c1F + CC(Nc1ccc2c(c1)OCCn1cc(N3C(=O)OCC3C(F)F)nc1-2)C(N)=O
viability, T/C [5]: 108%
viability, T/C [6]: 91.5%
viability, T/C (second compound 0.00316 µM, first compound 0.316 µM): 92.4%
viability, T/C (second compound 0.00316 µM, first compound 1 µM): 83.9%
viability, T/C (second compound 0.00316 µM, first compound 3.16 µM): 77.4%
viability, T/C (second compound 0.00316 µM, first compound 10 µM): 6.03%
viability, T/C [11]: 118%
viability, T/C [12]: 90.4%
viability, T/C (second compound 0.01 µM, first compound 0.316 µM): 83.8%
viability, T/C (second compound 0.01 µM, first compound 1 µM): 90.5%
viability, T/C (second compound 0.01 µM, first compound 3.16 µM): 89.9%
viability, T/C (second compound 0.01 µM, first compound 10 µM): 5.05%
viability, T/C [17]: 112%
viability, T/C [18]: 103%
viability, T/C (second compound 0.0316 µM, first compound 0.316 µM): 102%
viability, T/C (second compound 0.0316 µM, first compound 1 µM): 95.6%
viability, T/C (second compound 0.0316 µM, first compound 3.16 µM): 88.7%
viability, T/C (second compound 0.0316 µM, first compound 10 µM): 6.11%
viability, T/C [23]: 101%
viability, T/C [24]: 105%
viability, T/C (second compound 0.1 µM, first compound 0.316 µM): 118%
viability, T/C (second compound 0.1 µM, first compound 1 µM): 113%
viability, T/C (second compound 0.1 µM, first compound 3.16 µM): 81.2%
viability, T/C (second compound 0.1 µM, first compound 10 µM): 4%
viability, T/C [29]: 81%
viability, T/C [30]: 80.3%
viability, T/C (second compound 0.316 µM, first compound 0.316 µM): 87.1%
viability, T/C (second compound 0.316 µM, first compound 1 µM): 105%
viability, T/C (second compound 0.316 µM, first compound 3.16 µM): 71.5%
viability, T/C (second compound 0.316 µM, first compound 10 µM): 4.62%
viability, T/C [35]: 59%
viability, T/C [36]: 60.9%
viability, T/C (second compound 1 µM, first compound 0.316 µM): 70.4%
viability, T/C (second compound 1 µM, first compound 1 µM): 65.1%
viability, T/C (second compound 1 µM, first compound 3.16 µM): 63.2%
viability, T/C (second compound 1 µM, first compound 10 µM): 5.04%
